According to paper PMC5385555, “Molecular basis for the behavioral effects of the odorant degrading enzyme Esterase 6 in Drosophila” (Scientific Reports, 2017):
pKd: −log10 of the molar value.

Target: T1, LUSH (Drosophila melanogaster, UniProt O02372)
T1 sequence (O02372 30-153): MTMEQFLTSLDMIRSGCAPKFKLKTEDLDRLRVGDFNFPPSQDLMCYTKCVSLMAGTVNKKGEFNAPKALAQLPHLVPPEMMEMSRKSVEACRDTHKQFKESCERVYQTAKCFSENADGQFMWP
Experiment: fluorescence titration
Assay type: binding
Details: read-out: dissociation constant
Experimental: fluorescence titration on LUSH | A saturable NPN fluorescence change was recorded by a fluorometer and the dissociation constant

SMILES: c1ccc(Nc2cccc3ccccc23)cc1 [N-phenyl-1-naphthylamine]
- pKd: 5.62
